In ChEMBL document CHEMBL1133765, “QSAR model for drug human oral bioavailability” (J Med Chem, 2000):

How the values were obtained:
[1] = octanol/water
clinical = conditions: human, in vivo, po
physchem [2] = conditions: octanol/water
physchem [3] = assay: physchem
[4] = octanol/water; remark: listed apart in the source
physchem [5] = conditions: octanol/water, pH 6.5

## CNCCC[C@]12CC[C@H](c3ccccc31)c1ccccc12
[1]
  delta logD: -0.9
clinical; F
  bioavailability: 79%
Physchem [2]; pH 6.5, logD
  logD: 0.52
Physchem [3]
  pKa: 10.5

## CC(C)(C)NC(=O)C1CC[C@H]2[C@]3(C)CC[C@H]4NC(=O)C=C[C@]4(C)[C@H]3CC[C@]12C (stereo partly specified)
[1]
  delta logD: 0
clinical; F
  bioavailability: 79%
Physchem [2]; pH 6.5, logD
  logD: 3.03

## CO/C(O)=C1\C(C)=NC(C)=C(C(=O)OCC(C)C)C1c1ccccc1[N+](=O)[O-] (stereo unspecified)
[1]
  delta logD: 0
clinical; F
  bioavailability: < 20%
Physchem [2]; pH 6.5, logD
  logD: 1.58

## CC(C)=CCN1CC[C@@]2(C)c3cc(O)ccc3C[C@@H]1[C@@H]2C
[1]
  delta logD: -0.88
clinical
  bioavailability: 49%
Physchem [2]; pH 6.5
  logD: 1.05
Physchem [3]
  pKa: 8.8

## Nc1nc(N)c2nc(-c3ccccc3)c(N)nc2n1
[1]
  delta logD: -0.15
clinical; F
  bioavailability: 79%
Physchem [2]; pH 6.5, logD
  logD: 0.8
Physchem [3]
  pKa: 6.2

## CN(C)CCC=C1c2ccccc2CCc2ccccc21 [AMITRIPTYLINE]
[1]
  delta logD: -0.9
clinical
  bioavailability: 49%
Physchem [2]; pH 6.5
  logD: 2.14

## CC(=O)Oc1ccccc1C(=O)O [ASPIRIN]
[1]
  delta logD: 0.9
clinical; F
  bioavailability: 79%
Physchem [2]; pH 6.5, logD
  logD: -1.81

## C[C@H]1C[C@H]2[C@@H]3CCC4=CC(=O)C=C[C@]4(C)[C@@]3(F)[C@@H](O)C[C@]2(C)[C@@]1(O)C(=O)CO [BETAMETHASONE]
[1]
  delta logD: 0
Physchem [2]; pH 6.5, logD
  logD: 1.94

## Cc1ncsc1CCCl [CLOMETHIAZOLE]
[1]
  delta logD: 0
clinical
  bioavailability: < 20%
Physchem [2]; pH 6.5
  logD: 2.12

## O=C1CN=C(c2ccccc2Cl)c2cc([N+](=O)[O-])ccc2N1 [CLONAZEPAM]
[1]
  delta logD: 0
clinical
  bioavailability: > 80%
Physchem [2]; pH 6.5
  logD: 2.41

## CN1CCN(C2=Nc3cc(Cl)ccc3Nc3ccccc32)CC1 [CLOZAPINE]
[1]
  delta logD: -0.81
clinical
  bioavailability: 79%
Physchem [2]; pH 6.5
  logD: 1.81

## O=P1(N(CCCl)CCCl)NCCCO1 (stereo unspecified) [CYCLOPHOSPHAMIDE ANHYDROUS]
[1]
  delta logD: 0
clinical
  bioavailability: > 80%
Physchem [2]; pH 6.5
  logD: 0.63

## C[C@@H]1C[C@H]2[C@@H]3CCC4=CC(=O)C=C[C@]4(C)[C@@]3(F)[C@@H](O)C[C@]2(C)[C@@]1(O)C(=O)CO [DEXAMETHASONE]
[1]
  delta logD: 0
Physchem [2]; pH 6.5, logD
  logD: 1.83

## O=c1[nH]c2ccccc2n1CCCN1CCC(n2c(=O)[nH]c3cc(Cl)ccc32)CC1 [DOMPERIDONE]
Physchem [2]; pH 6.5
  logD: 2.83

## CCCCCc1cc(O)c2c(c1)OC(C)(C)[C@@H]1CCC(C)=C[C@@H]21 [DRONABINOL]
[1]
  delta logD: 0
clinical
  bioavailability: < 20%
Physchem [2]; pH 6.5
  logD: 4.49

## C#C[C@]1(O)CC[C@H]2[C@@H]3CCc4cc(O)ccc4[C@H]3CC[C@@]21C [ETHINYL ESTRADIOL]
[1]
  delta logD: 0
clinical; F
  bioavailability: 49%
Physchem [2]; pH 6.5, logD
  logD: 3.67

## CCC1(C)CC(=O)NC1=O (stereo unspecified) [ETHOSUXIMIDE]
[1]
  delta logD: 0
clinical
  bioavailability: > 80%
Physchem [2]; pH 6.5
  logD: -0.33

## Nc1nc(=O)[nH]cc1F [FLUCYTOSINE]
[1]
  delta logD: 0
clinical; F
  bioavailability: > 80%
Physchem [2]; pH 6.5, logD
  logD: -1.65

## O=C(CCCN1CCC(O)(c2ccc(Cl)cc2)CC1)c1ccc(F)cc1 [HALOPERIDOL]
[1]
  delta logD: -0.86
clinical; F
  bioavailability: 79%
Physchem [2]; pH 6.5, logD
  logD: 1.42

## NNC(=O)c1ccncc1 [ISONIAZID]
[1]
  delta logD: 0
clinical; F
  bioavailability: > 80%
Physchem [2]; pH 6.5, logD
  logD: -0.7

## C[C@H]1C[C@@H]2[C@H]([C@@H](O)C[C@@]3(C)[C@H]2CC[C@]3(O)C(=O)CO)[C@@]2(C)C=CC(=O)C=C12 [METHYLPREDNISOLONE]
[1]
  delta logD: 0
clinical; F
  bioavailability: > 80%
Physchem [2]; pH 6.5, logD
  logD: 1.66

## COCCc1ccc(OCC(O)CNC(C)C)cc1 (stereo unspecified) [METOPROLOL]
clinical; F
  bioavailability: 49%
Physchem [2]; pH 6.5, logD
  logD: -1.32

## CN1CCN2c3ccccc3Cc3ccccc3C2C1 (stereo unspecified) [MIANSERIN]
[1]
  delta logD: -0.52
clinical; F
  bioavailability: 49%
Physchem [2]; pH 6.5, logD
  logD: 2.78

## C=CCN1CC[C@]23c4c5ccc(O)c4O[C@H]2C(=O)CC[C@@]3(O)[C@H]1C5 [NALOXONE]
[1]
  delta logD: -0.81
clinical
  bioavailability: < 20%
Physchem [2]; pH 6.5
  logD: 0.64

## COC(=O)C1=C(C#N)NC(C)=C(C(=O)OC(C)C)C1c1cccc([N+](=O)[O-])c1 (stereo unspecified) [NILVADIPINE]
[1]
  delta logD: 0
clinical; F
  bioavailability: < 20%
Physchem [2]; pH 6.5, logD
  logD: 1.99

## COCCOC(=O)C1=C(C)NC(C)=C(C(=O)OC(C)C)C1c1cccc([N+](=O)[O-])c1 (stereo unspecified) [NIMODIPINE]
[1]
  delta logD: 0
clinical; F
  bioavailability: < 20%
Physchem [2]; pH 6.5, logD
  logD: 0.73

## O=C1CN=C(c2ccccc2)c2cc([N+](=O)[O-])ccc2N1 [NITRAZEPAM]
[1]
  delta logD: 0
clinical
  bioavailability: 79%
Physchem [2]; pH 6.5
  logD: 2.25

## O=C1CN(/N=C/c2ccc([N+](=O)[O-])o2)C(=O)N1 [NITROFURANTOIN]
[1]
  delta logD: 0
clinical; F
  bioavailability: > 80%
Physchem [2]; pH 6.5, logD
  logD: -0.47

## C#C[C@]1(O)CC[C@H]2[C@@H]3CCC4=CC(=O)CC[C@@H]4[C@H]3CC[C@@]21C [NORETHINDRONE]
[1]
  delta logD: 0
clinical; F
  bioavailability: 79%
Physchem [2]; pH 6.5, logD
  logD: 2.97

## CNCCC=C1c2ccccc2CCc2ccccc21 [NORTRIPTYLINE]
[1]
  delta logD: -0.9
clinical; F
  bioavailability: 79%
Physchem [2]; pH 6.5, logD
  logD: 1.08

## CC(=O)CCCCn1c(=O)c2c(ncn2C)n(C)c1=O [PENTOXIFYLLINE]
[1]
  delta logD: 0
clinical; F
  bioavailability: 49%
Physchem [2]; pH 6.5, logD
  logD: 0.29

## CCC1(c2ccccc2)C(=O)NC(=O)NC1=O [PHENOBARBITAL]
[1]
  delta logD: 0.21
clinical
  bioavailability: > 80%
Physchem [2]; pH 6.5
  logD: 1.43

## O=c1[nH]c2ccccc2n1C1CCN(CCCC(c2ccc(F)cc2)c2ccc(F)cc2)CC1 [PIMOZIDE]
Physchem [2]; pH 6.5
  logD: 5.42
Physchem [3]
  pKa: 7.3

## C[C@]12C=CC(=O)C=C1CC[C@@H]1[C@@H]2[C@@H](O)C[C@@]2(C)[C@H]1CC[C@]2(O)C(=O)CO [PREDNISOLONE]
[1]
  delta logD: 0

## C[C@]12C=CC(=O)C=C1CC[C@@H]1[C@@H]2C(=O)C[C@@]2(C)[C@H]1CC[C@]2(O)C(=O)CO [PREDNISONE]
[1]
  delta logD: 0
clinical; F
  bioavailability: > 80%

## CCC1(c2ccccc2)C(=O)NCNC1=O [PRIMIDONE]
[1]
  delta logD: 0
clinical; F
  bioavailability: > 80%
Physchem [2]; pH 6.5, logD
  logD: 0.91

## CCCN(CCC)S(=O)(=O)c1ccc(C(=O)O)cc1 [PROBENECID]
[4]
  delta logD: 0.9
clinical; F
  bioavailability: ≥ 80%
Physchem [3]
  pKa: 3.4
Physchem [5]
  logD: 0.11

## CC(C)(Sc1cc(C(C)(C)C)c(O)c(C(C)(C)C)c1)Sc1cc(C(C)(C)C)c(O)c(C(C)(C)C)c1 [PROBUCOL]
[1]
  delta logD: 0
clinical; F
  bioavailability: < 20%
Physchem [2]; pH 6.5, logD
  logD: 7.29

## CC(=O)[C@H]1CC[C@H]2[C@@H]3CCC4=CC(=O)CC[C@]4(C)[C@H]3CC[C@]12C [PROGESTERONE]
[1]
  delta logD: 0
clinical
  bioavailability: < 20%

## C1COC(NC(C2CC2)C2CC2)=N1 [RILMENIDINE]
[4]
  delta logD: -0.9
clinical; F
  bioavailability: ≥ 80%
Physchem [3]
  pKa: 9.3
Physchem [5]
  logD: -0.94

## Cc1nc2n(c(=O)c1CCN1CCC(c3noc4cc(F)ccc34)CC1)CCCC2 [RISPERIDONE]
[1]
  delta logD: -0.9
clinical
  bioavailability: 79%
Physchem [2]; pH 6.5
  logD: 0.74

## CC(=O)S[C@@H]1CC2=CC(=O)CC[C@]2(C)[C@H]2CC[C@@]3(C)[C@@H](CC[C@@]34CCC(=O)O4)[C@H]12 [SPIRONOLACTONE]
[1]
  delta logD: 0
clinical; F
  bioavailability: 49%
Physchem [2]; pH 6.5, logD
  logD: 2.78

## CN1C(C(=O)Nc2ccccn2)=C(O)c2sccc2S1(=O)=O [TENOXICAM]
[4]
  delta logD: 0.88
clinical; F
  bioavailability: ≥ 80%
Physchem [3]
  pKa: 5.1
Physchem [5]
  logD: 0.56

## COc1cc2nc(N3CCN(C(=O)C4CCCO4)CC3)nc(N)c2cc1OC (stereo unspecified) [TERAZOSIN]
[1]
  delta logD: -0.52
clinical; F
  bioavailability: > 80%
Physchem [2]; pH 6.5, logD
  logD: 0.29

## CC(C)(C)NCC(O)c1cc(O)cc(O)c1 (stereo unspecified) [TERBUTALINE]
[1]
  delta logD: -0.89
clinical; F
  bioavailability: < 20%
Physchem [2]; pH 6.5, logD
  logD: -1.82

## CCN(CC)C(=O)N[C@H]1C[C@@H]2c3cccc4[nH]cc(c34)C[C@H]2N(C)C1 [TERGURIDE]
[4]
  delta logD: -0.32
clinical
  bioavailability: ≤ 20%
Physchem [3]
  pKa: 6.8
Physchem [5]
  logD: 2.05

## C[C@]12CC[C@H]3[C@@H](CCC4=CC(=O)CC[C@@]43C)[C@@H]1CC[C@@H]2O [TESTOSTERONE]
[1]
  delta logD: 0
clinical
  bioavailability: < 20%

## O=C(NCCNCC(O)COc1ccc(O)cc1)N1CCOCC1 (stereo unspecified) [XAMOTEROL]
[4]
  delta logD: -0.78
clinical; F
  bioavailability: ≤ 20%
Physchem [3]
  pKa: 7.8
Physchem [5]
  logD: -0.8
